In patent US6914045B2, “Glycopeptide antibiotics” (Wyeth Holdings Corporation, priority 2001, dated 2005):
Values after ≈ are worked out from the molar mass of the structure shown.

What was measured:
Assay in all cases: in vitro antibacterial evaluation, MIC by broth dilution
Format in all cases: cell-based
Enterococcus sp. = details: broth dilution, 18 hours at 35° C.
Summary of the method: (§1)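 Test organisms, which included recent clinical isolates resistant to methicillin, penicillin and/or vancomycin, were inoculated at 5×10^5 CFU/mL into Muller-Hinton II […] containing antibiotic at 64-0.06 μg/mL. Minimum inhibitory concentrations were then read as the lowest level inhibiting growth.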

Staphylococcus sp. = details: broth dilution, 18 hours at 35° C.
Summary of the method: as §1

Streptococcus sp. = details: broth dilution, 18 hours at 35° C.
Summary of the method: as §1

Escherichia coli = details: 18 hours at 35° C.

For `CCOc1cc(COCC2OC(OC3C(CO)OC(Oc4ccc(CC5NC(=O)C(C(C)c6ccccc6)NC(=O)CNC(=O)C(CO)NC(=O)C(C(O)C6CNC(=N)N6C6OC(CO)C(O)C(O)C6O)NC(=O)C(C(O)C6CNC(=N)N6)NC5=O)cc4)C(O)C3O)C(O)C(O)C2O)ccc1OC` (stereo not shown) [Example 238], the “MIC Enterococcus avium (GC 4558)” value (Enterococcus sp.) was 16 µg/mL (≈ 11 µM), the “MIC Enterococcus faecalis (ATCC 29212)” value (Enterococcus sp.) was 16 µg/mL (≈ 11 µM) and the “MIC Enterococcus faecalis (GC 2242)” value (Enterococcus sp.) was 16 µg/mL (≈ 11 µM). For the same compound, the “MIC Enterococcus faecalis (GC 2691)” value (Enterococcus sp.) was 16 µg/mL (≈ 11 µM), the “MIC Enterococcus faecalis (GC 3059)” value (Enterococcus sp.) was 32 µg/mL (≈ 21.9 µM) and the “MIC Enterococcus faecalis (GC 4552)” value (Enterococcus sp.) was 32 µg/mL (≈ 21.9 µM). The “MIC Enterococcus faecalis (GC 4553)” value (Enterococcus sp.) was 32 µg/mL (≈ 21.9 µM), the “MIC Enterococcus faecalis (GC 4554)” value (Enterococcus sp.) was 32 µg/mL (≈ 21.9 µM) and the “MIC Enterococcus faecalis (GC 6189)” value (Enterococcus sp.) was 16 µg/mL (≈ 11 µM). For the same compound, the “MIC Enterococcus faecium (GC 2243)” value (Enterococcus sp.) was 16 µg/mL (≈ 11 µM), the “MIC Enterococcus faecium (GC 4556)” value (Enterococcus sp.) was 32 µg/mL (≈ 21.9 µM) and the “MIC Enterococcus faecium (GC 4557)” value (Enterococcus sp.) was 4 µg/mL (≈ 2.74 µM). For the same compound, the “MIC Enterococcus faecalis (ATCC 29212)” value (Enterococcus sp.; strain ATCC 29212) was 16 µg/mL (≈ 11 µM), the “MIC Enterococcus faecium (GC 2243)” value (Enterococcus sp.; strain GC 2243) was 16 µg/mL (≈ 11 µM) and the “MIC Enterococcus faecalis (GC 4552)” value (Enterococcus sp.; strain GC 4552) was 32 µg/mL (≈ 21.9 µM). The “MIC Enterococcus faecalis (GC 4553)” value (Enterococcus sp.; strain GC 4553) was 32 µg/mL (≈ 21.9 µM), the “MIC Enterococcus faecalis (GC 4554)” value (Enterococcus sp.; strain GC 4554) was 32 µg/mL (≈ 21.9 µM) and the “MIC Enterococcus faecium (GC 4556)” value (Enterococcus sp.; strain GC 4556) was 32 µg/mL (≈ 21.9 µM). For the same compound, the “MIC Enterococcus faecium (GC 4557)” value (Enterococcus sp.; strain GC 4557) was 4 µg/mL (≈ 2.74 µM), the “MIC Enterococcus avium (GC 4558)” value (Enterococcus sp.; strain GC 4558) was 16 µg/mL (≈ 11 µM) and the “MIC Enterococcus faecalis (GC 6189)” value (Enterococcus sp.; strain GC 6189) was 16 µg/mL (≈ 11 µM). The “MIC Enterococcus faecalis (GC 2242)” value (Enterococcus sp.; inoculum 5×10^5 CFU/mL, strain GC 2242) was 16 µg/mL (≈ 11 µM), the “MIC Enterococcus faecalis (GC 2691)” value (Enterococcus sp.; inoculum 5×10^5 CFU/mL, strain GC 2691) was 16 µg/mL (≈ 11 µM) and the “MIC Enterococcus faecalis (GC 3059)” value (Enterococcus sp.; inoculum 5×10^5 CFU/mL, strain GC 3059) was 32 µg/mL (≈ 21.9 µM). For the same compound, the “MIC Coagulase Negative Staphylococcus (GC 4547)” value (Staphylococcus sp.) was 2 µg/mL (≈ 1.37 µM), the “MIC Coagulase Negative Staphylococcus (GC 4548)” value (Staphylococcus sp.) was 2 µg/mL (≈ 1.37 µM) and the “MIC Coagulase Negative Staphylococcus (GC 4549)” value (Staphylococcus sp.) was 2 µg/mL (≈ 1.37 µM). For the same compound, the “MIC Coagulase Negative Staphylococcus (GC 4551)” value (Staphylococcus sp.) was 4 µg/mL (≈ 2.74 µM), the “MIC Coagulase Negative Staphylococcus (GC 6257)” value (Staphylococcus sp.) was 1 µg/mL (≈ 0.685 µM) and the “MIC Staphylococcus aureus (ATCC 29213)” value (Staphylococcus sp.) was 4 µg/mL (≈ 2.74 µM). For the same compound, the “MIC Staphylococcus aureus (GC 1131)” value (Staphylococcus sp.) was 4 µg/mL (≈ 2.74 µM), the “MIC Staphylococcus aureus (GC 3051)” value (Staphylococcus sp.) was 4 µg/mL (≈ 2.74 µM) and the “MIC Staphylococcus aureus (GC 3053)” value (Staphylococcus sp.) was 8 µg/mL (≈ 5.48 µM). For the same compound, the “MIC Staphylococcus aureus (GC 4541)” value (Staphylococcus sp.) was 4 µg/mL (≈ 2.74 µM), the “MIC Staphylococcus aureus (GC 4542)” value (Staphylococcus sp.) was 4 µg/mL (≈ 2.74 µM) and the “MIC Staphylococcus aureus (GC 4544)” value (Staphylococcus sp.) was 8 µg/mL (≈ 5.48 µM). The “MIC Staphylococcus aureus (GC 4545)” value (Staphylococcus sp.) was 2 µg/mL (≈ 1.37 µM), the “MIC Staphylococcus aureus-SMITH (GC 4543)” value (Staphylococcus sp.) was 4 µg/mL (≈ 2.74 µM) and the “MIC Staphylococcus haemolyticus (GC 4546)” value (Staphylococcus sp.) was 2 µg/mL (≈ 1.37 µM). For the same compound, the “MIC Staphylococcus aureus (ATCC 29213)” value (Staphylococcus sp.; strain ATCC 29213) was 4 µg/mL (≈ 2.74 µM), the “MIC Staphylococcus aureus (GC 1131)” value (Staphylococcus sp.; strain GC 1131) was 4 µg/mL (≈ 2.74 µM) and the “MIC Staphylococcus aureus (GC 3051)” value (Staphylococcus sp.; strain GC 3051) was 4 µg/mL (≈ 2.74 µM). The “MIC Staphylococcus aureus (GC 3053)” value (Staphylococcus sp.; strain GC 3053) was 8 µg/mL (≈ 5.48 µM), the “MIC Staphylococcus aureus (GC 4541)” value (Staphylococcus sp.; strain GC 4541) was 4 µg/mL (≈ 2.74 µM) and the “MIC Staphylococcus aureus (GC 4542)” value (Staphylococcus sp.; strain GC 4542) was 4 µg/mL (≈ 2.74 µM). The “MIC Staphylococcus aureus-SMITH (GC 4543)” value (Staphylococcus sp.; strain GC 4543) was 4 µg/mL (≈ 2.74 µM), the “MIC Staphylococcus aureus (GC 4544)” value (Staphylococcus sp.; strain GC 4544) was 8 µg/mL (≈ 5.48 µM) and the “MIC Staphylococcus aureus (GC 4545)” value (Staphylococcus sp.; strain GC 4545) was 2 µg/mL (≈ 1.37 µM). The “MIC Staphylococcus haemolyticus (GC 4546)” value (Staphylococcus sp.; strain GC 4546) was 2 µg/mL (≈ 1.37 µM), the “MIC Coagulase Negative Staphylococcus (GC 4547)” value (Staphylococcus sp.; strain GC 4547) was 2 µg/mL (≈ 1.37 µM) and the “MIC Coagulase Negative Staphylococcus (GC 4548)” value (Staphylococcus sp.; strain GC 4548) was 2 µg/mL (≈ 1.37 µM). For the same compound, the “MIC Coagulase Negative Staphylococcus (GC 4549)” value (Staphylococcus sp.; strain GC 4549) was 2 µg/mL (≈ 1.37 µM), the “MIC Coagulase Negative Staphylococcus (GC 4551)” value (Staphylococcus sp.; strain GC 4551) was 4 µg/mL (≈ 2.74 µM) and the “MIC Coagulase Negative Staphylococcus (GC 6257)” value (Staphylococcus sp.; strain GC 6257) was 1 µg/mL (≈ 0.685 µM). The “MIC Streptococcus agalactiae (GC 4564)” value (Streptococcus sp.) was 2 µg/mL (≈ 1.37 µM), the “MIC Streptococcus pneumoniae (ATCC 6301)” value (Streptococcus sp.) was 1 µg/mL (≈ 0.685 µM) and the “MIC Streptococcus pneumoniae (GC 1894)” value (Streptococcus sp.) was 0.5 µg/mL (≈ 0.343 µM). For the same compound, the “MIC Streptococcus pneumoniae (GC 4565)” value (Streptococcus sp.) was 1 µg/mL (≈ 0.685 µM), the “MIC Streptococcus pyogenes (GC 4563)” value (Streptococcus sp.) was 1 µg/mL (≈ 0.685 µM) and the “MIC Streptococcus pneumoniae (ATCC 6301)” value (Streptococcus sp.; inoculum 5×10^5 CFU/mL, strain ATCC 6301) was 1 µg/mL (≈ 0.685 µM). The “MIC Streptococcus pneumoniae (GC 1894)” value (Streptococcus sp.; inoculum 5×10^5 CFU/mL, strain GC 1894) was 0.5 µg/mL (≈ 0.343 µM), the “MIC Streptococcus pyogenes (GC 4563)” value (Streptococcus sp.; inoculum 5×10^5 CFU/mL, strain GC 4563) was 1 µg/mL (≈ 0.685 µM) and the “MIC Streptococcus agalactiae (GC 4564)” value (Streptococcus sp.; inoculum 5×10^5 CFU/mL, strain GC 4564) was 2 µg/mL (≈ 1.37 µM). The “MIC Streptococcus pneumoniae (GC 4565)” value (Streptococcus sp.; inoculum 5×10^5 CFU/mL, strain GC 4565) was 1 µg/mL (≈ 0.685 µM), the “MIC Escherichia coli (ATCC 25922)” value (Escherichia coli) was greater than 64 µg/mL and the “MIC Escherichia coli (GC 4559)” value (Escherichia coli) was greater than 64 µg/mL. The “MIC Escherichia coli (GC 4560)” value (Escherichia coli) was 2 µg/mL (≈ 1.37 µM).
